Assay results published in US20160031855A1, “PROTEIN KINASE INHIBITORS” (ORION CORPORATION, priority 2013, published 2016).

Target: T1, FGFR1 kinase (Homo sapiens, UniProt P11362)
T1 construct: purchased Upstate, USA
Test: TR-FRET assay with FGFR1 kinase
Format: biochemical
Conditions: 13 μM ATP; for IC50: dose response, read-out: IC50 of FGFR1 inhibition; for inhibition at 1 µM: compound at 1000 nM
Description: 1. Inhibition of FGFR1 kinase
Compounds were screened in the TR-FRET assay with FGFR1 kinase. 5 ng of FGFR1 [Upstate, USA] kinase was used for assay. The compound was incubated with the kinase for 30 minutes at room temperature. After the incubation, substrate mix [40 nM Ultra light poly GT (Perkin Elmer, USA) and 13 μM ATP (Sigma)] was added. The above reaction was stopped by the addition of 40 mM EDTA after the 30 min kinase reaction. The Eu-labelled antiphospho-tyrosine antibody [Perkin Elmer, USA] was added at 0.5 nM and the fluorescence emission at 615 nm/665 nm [excitation at 340 nm] was measured. The compounds were initially screened at 100 nM and 1 μM concentrations. The compounds with >50% inhibition at 100 nM of FGFR1 were taken for the full dose response studies. The final DMSO concentration in the assay was 1%. For IC50 determination, ⅓^rd serial dilution was made from the 20 mM DMSO stock solution. 2 μl of these were transferred to the test wells containing […] of the reaction mixture [total reaction volume 20 μl]. The fluorescence was measured in Perkin Elmer Wallac 1420 Multilabel Counter Victor 3. The IC50 was determined by fitting the dose response data to sigmoidal curve fitting equation using GraphPad Prism software V5.

T1 sequence (P11362 22-822): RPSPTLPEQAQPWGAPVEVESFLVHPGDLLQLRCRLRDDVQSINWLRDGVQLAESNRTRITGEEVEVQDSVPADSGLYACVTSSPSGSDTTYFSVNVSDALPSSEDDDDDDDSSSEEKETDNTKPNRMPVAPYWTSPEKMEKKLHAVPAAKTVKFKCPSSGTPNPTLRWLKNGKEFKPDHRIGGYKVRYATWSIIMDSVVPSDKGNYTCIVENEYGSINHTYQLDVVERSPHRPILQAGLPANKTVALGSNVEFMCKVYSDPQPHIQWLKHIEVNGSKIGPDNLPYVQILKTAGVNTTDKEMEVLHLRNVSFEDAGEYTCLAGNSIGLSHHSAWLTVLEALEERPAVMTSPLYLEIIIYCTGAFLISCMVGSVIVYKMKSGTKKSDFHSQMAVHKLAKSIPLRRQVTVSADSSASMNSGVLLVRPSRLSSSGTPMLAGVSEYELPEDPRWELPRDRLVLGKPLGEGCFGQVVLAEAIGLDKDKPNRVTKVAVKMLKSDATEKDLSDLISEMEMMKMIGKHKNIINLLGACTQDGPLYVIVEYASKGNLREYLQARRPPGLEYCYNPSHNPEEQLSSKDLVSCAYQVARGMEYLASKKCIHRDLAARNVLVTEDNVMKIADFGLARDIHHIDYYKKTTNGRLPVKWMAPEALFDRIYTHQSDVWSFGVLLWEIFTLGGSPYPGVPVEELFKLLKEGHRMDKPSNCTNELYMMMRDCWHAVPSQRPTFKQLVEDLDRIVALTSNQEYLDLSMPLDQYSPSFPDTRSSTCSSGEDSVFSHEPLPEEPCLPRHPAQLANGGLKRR

Row | Structure (SMILES) | IC50 | inhibition at 1 µM
1 | Cn1cc(-c2ccc3c(c2)ncn3-c2cc(-c3ccccc3Cl)cc(NS(=O)(=O)C3CC3)n2)cn1 [Example 28, N-(4-(2-chlorophenyl)-6-(5-(1-methyl-1H-pyrazol-4-yl)-1H-benzo[d]imidazol-1-yl)pyridin-2-yl)cyclopropanesulfonamide] | 7.2 nM | 97%
2 | Cn1cc(-c2ccc3c(c2)ncn3-c2cc(-c3ncccc3Cl)cc(NS(=O)(=O)C3CC3)n2)cn1 [Example 29, N-(3-chloro-6′-(5-(1-methyl-1H-pyrazol-4-yl)-1H-benzo[d]imidazol-1-yl)-[2,4′-bipyridin]-2′-yl)cyclopropanesulfonamide] | 9.7 nM | 97%
3 | Cn1cc(-c2ccc3c(c2)ncn3-c2cc(-c3ccc(F)cn3)cc(NS(=O)(=O)C3CC3)n2)cn1 [Example 30, N-(5-fluoro-6′-(5-(1-methyl-1H-pyrazol-4-yl)-1H-benzo[d]imidazol-1-yl)-[2,4′-bipyridin]-2′-yl)cyclopropanesulfonamide] | 24 nM | 96%
4 | O=S(=O)(Nc1cc(-c2ccc(F)cc2F)cc(-n2cnc3cc(-n4ccnc4)ccc32)n1)C1CC1 [Example 32, N-(6-(5-(1H-imidazol-1-yl)-1H-benzo[d]imidazol-1-yl)-4-(2,4-difluorophenyl)-pyridin-2-yl)cyclopropanesulfonamide] | 21.7 nM | 99%
5 | O=S(=O)(Nc1cc(-c2ccc(F)cc2F)cc(-n2cnc3cc(-c4cnn(CCN5CCOCC5)c4)ccc32)n1)C1CC1 [Example 33, N-(4-(2,4-difluorophenyl)-6-(5-(1-(2-morpholinoethyl)-1H-pyrazol-4-yl)-1H-benzo[d]imidazol-1-yl)pyridin-2-yl)cyclopropanesulfonamide] | 2 nM | 99%
6 | O=S(=O)(Nc1cc(-c2ccc(F)cc2F)cc(-n2cnc3cc(-c4cnn(C5CCNC5)c4)ccc32)n1)C1CC1 (stereo not shown) [Example 34, N-(4-(2,4-difluorophenyl)-6-(5-(1-(pyrrolidin-3-yl)-1H-pyrazol-4-yl)-1H-benzo[d]imidazol-1-yl)pyridin-2-yl)cyclopropanesulfonamide] | 1.6 nM | 99%
7 | CCn1cc(-c2ccc3c(c2)ncn3-c2cc(-c3ccc(F)cc3F)cc(NS(=O)(=O)C3CC3)n2)nn1 [Example 35, N-(4-(2,4-difluorophenyl)-6-(5-(1-ethyl-1H-1,2,3-triazol-4-yl)-1H-benzo[d]-imidazol-1-yl)pyridin-2-yl)cyclopropanesulfonamide] | 2 nM | 99%
8 | Cn1cc(-c2ccc3c(c2)ncn3-c2cc(-c3ccc(F)cc3F)cc(NS(=O)(=O)C3CC3)n2)nn1 [Example 36, N-(4-(2,4-difluorophenyl)-6-(5-(1-methyl-1H-1,2,3-triazol-4-yl)-1H-benzo[d]-imidazol-1-yl)pyridin-2-yl)cyclopropanesulfonamide] | 4.7 nM | 99%
9 | Cn1cnc(-c2ccc3c(c2)ncn3-c2cc(-c3ccc(F)cc3F)cc(NS(=O)(=O)C3CC3)n2)c1 [Example 37, N-(4-(2,4-difluorophenyl)-6-(5-(1-methyl-1H-imidazol-4-yl)-1H-benzo[d]-imidazol-1-yl)pyridin-2-yl)cyclopropanesulfonamide] | 1.3 nM | 99%
10 | CC(=O)Nc1nc(-c2ccc(F)cc2F)cc(-n2cnc3cc(-c4cnn(C)c4)ccc32)n1 [Example 38, N-(4-(2,4-difluorophenyl)-6-(5-(1-methyl-1H-pyrazol-4-yl)-1H-benzo[d]-imidazol-1-yl)pyrimidin-2-yl)acetamide] | 12 nM | 87%
11 | CCOC(=O)c1cn(-c2ccc3c(c2)ncn3-c2cc(-c3ccc(F)cc3F)cc(NS(=O)(=O)C3CC3)n2)nn1 [Example 39, Ethyl 1-(1-(6-(cyclopropanesulfonamido)-4-(2,4-difluorophenyl)pyridin-2-yl)-1H-benzo[d]imidazol-5-yl)-1H-1,2,3-triazole-4-carboxylate] | 294 nM | 81%
12 | Cn1cc(-c2ccc3c(c2)ncn3-c2cc(-c3ccc(F)cc3OC(F)F)cc(NS(=O)(=O)C3CC3)n2)cn1 [Example 40, N-(4-(2-(difluoromethoxy)-4-fluorophenyl)-6-(5-(1-methyl-1H-pyrazol-4-yl)-1H-benzo[d]imidazol-1-yl)pyridin-2-yl)cyclopropanesulfonamide] | 293 nM | 76%
13 | Cn1cc(-c2ccc3c(c2)ncn3-c2cc(-c3ccc(F)cc3F)nc(NS(=O)(=O)C3CC3)n2)cn1 [Example 41, N-(4-(2,4-difluorophenyl)-6-(5-(1-methyl-1H-pyrazol-4-yl)-1H-benzo[d]-imidazol-1-yl)pyrimidin-2-yl)cyclopropanesulfonamide] | 32.7 nM | 93%
14 | Cn1cc(-c2ccc3c(c2)ncn3-c2cc(NS(=O)(=O)C3CC3)nc(-c3ccc(F)cc3F)c2)cn1 [Example 43, N-(6-(2,4-difluorophenyl)-4-(5-(1-methyl-1H-pyrazol-4-yl)-1H-benzo[d]-imidazol-1-yl)pyridin-2-yl)cyclopropanesulfonamide] | 43.4 nM | 94%
